# Laboratory results as given in PMC11541931, “The structure and function of P5A-ATPases” (Nature Communications, 2024).
# Molecular target: T1, CtSpf1 (Thermochaetoides thermophila, UniProt G0S4Z4)
# T1 construct: gene CTHT_0032200; full length, last two C-terminal arginines removed; C-terminal TEV site-GGGGS-GFP-His10, tag kept; made in S. cerevisiae PAP1500; in nanodiscs
# Test: cryo-EM structure, […] A
# Settings: 1 mM ADP with 2 mM AlF4-, Mg2+; MSP1E3D1 nanodisc, pH 7.5; nucleotide-binding site, E1P-ADP state
# T1 sequence (G0S4Z4 entry or part of it): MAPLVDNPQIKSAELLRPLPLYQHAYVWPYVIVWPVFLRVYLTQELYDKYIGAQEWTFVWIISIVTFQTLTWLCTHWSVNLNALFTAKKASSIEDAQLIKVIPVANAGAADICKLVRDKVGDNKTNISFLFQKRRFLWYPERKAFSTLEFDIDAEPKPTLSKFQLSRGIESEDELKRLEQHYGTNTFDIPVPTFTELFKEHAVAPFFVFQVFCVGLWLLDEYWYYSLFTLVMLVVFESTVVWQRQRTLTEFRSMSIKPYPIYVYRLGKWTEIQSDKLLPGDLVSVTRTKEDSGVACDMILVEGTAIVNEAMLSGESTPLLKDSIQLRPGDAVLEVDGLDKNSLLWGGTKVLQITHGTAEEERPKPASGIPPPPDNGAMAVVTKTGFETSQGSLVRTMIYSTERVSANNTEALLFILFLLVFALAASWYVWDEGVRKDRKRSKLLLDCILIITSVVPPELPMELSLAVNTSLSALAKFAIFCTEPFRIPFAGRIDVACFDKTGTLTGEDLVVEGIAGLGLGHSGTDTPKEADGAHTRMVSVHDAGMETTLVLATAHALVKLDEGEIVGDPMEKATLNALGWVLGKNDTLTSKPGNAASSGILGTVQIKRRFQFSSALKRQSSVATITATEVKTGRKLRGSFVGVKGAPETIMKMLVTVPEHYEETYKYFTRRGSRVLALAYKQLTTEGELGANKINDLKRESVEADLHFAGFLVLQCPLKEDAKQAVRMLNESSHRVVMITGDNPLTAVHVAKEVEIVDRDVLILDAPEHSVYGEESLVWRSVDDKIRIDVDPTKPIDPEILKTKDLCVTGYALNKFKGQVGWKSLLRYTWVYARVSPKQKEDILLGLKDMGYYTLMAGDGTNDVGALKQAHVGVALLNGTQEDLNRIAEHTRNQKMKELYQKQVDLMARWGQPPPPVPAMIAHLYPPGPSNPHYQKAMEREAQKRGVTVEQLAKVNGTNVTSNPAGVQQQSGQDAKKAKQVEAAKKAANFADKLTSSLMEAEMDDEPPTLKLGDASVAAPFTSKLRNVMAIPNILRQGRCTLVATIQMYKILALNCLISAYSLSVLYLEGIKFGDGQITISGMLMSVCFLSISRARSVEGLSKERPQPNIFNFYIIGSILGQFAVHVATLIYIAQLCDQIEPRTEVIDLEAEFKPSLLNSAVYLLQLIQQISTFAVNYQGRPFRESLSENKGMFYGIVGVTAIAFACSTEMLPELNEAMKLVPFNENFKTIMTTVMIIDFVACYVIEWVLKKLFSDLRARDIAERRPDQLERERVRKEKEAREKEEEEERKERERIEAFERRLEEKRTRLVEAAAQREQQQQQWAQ
smiles,measurement,value
Nc1ncnc2c1ncn2[C@@H]1O[C@H](COP(=O)(O)OP(=O)(O)O)[C@@H](O)[C@H]1O [ADP],"cryo-EM structure, 3.4 A",We retrieved two separate maps with ADP-AlF4^− bound
